{"source": "the NIST ThermoML archive (doi:10.1016/j.jct.2017.05.006)", "experiment": "osmotic coefficient (dimensionless); mn = molality of the nth substance listed, in mol/kg", "settings": "298.15 K, Liquid, isopiestic method", "note": "Numbers after ± are expanded uncertainties."}
{"smiles": "O=[N+]([O-])[O-].O=[N+]([O-])[O-].[Mg+2]", "note": "[magnesium nitrate] + O", "values": [{"measurement": "osmotic coefficient", "setting": "m1 = 0.7578", "value": "1.015 ± 0.005"}, {"measurement": "osmotic coefficient", "setting": "m1 = 0.855", "value": "1.032 ± 0.0058"}, {"measurement": "osmotic coefficient", "setting": "m1 = 0.9755", "value": "1.071 ± 0.009"}, {"measurement": "osmotic coefficient", "setting": "m1 = 1.067", "value": "1.103 ± 0.0066"}, {"measurement": "osmotic coefficient", "setting": "m1 = 1.126", "value": "1.115 ± 0.0072"}, {"measurement": "osmotic coefficient", "setting": "m1 = 1.15", "value": "1.122 ± 0.0076"}, {"measurement": "osmotic coefficient", "setting": "m1 = 1.187", "value": "1.13 ± 0.013"}, {"measurement": "osmotic coefficient", "setting": "m1 = 1.191", "value": "1.135 ± 0.0096"}, {"measurement": "osmotic coefficient", "setting": "m1 = 1.234", "value": "1.143 ± 0.008"}, {"measurement": "osmotic coefficient", "setting": "m1 = 1.309", "value": "1.172 ± 0.011"}, {"measurement": "osmotic coefficient", "setting": "m1 = 1.395", "value": "1.196 ± 0.0091"}]}
{"smiles": "O=S(=O)([O-])[O-].[Mg+2]", "note": "[magnesium sulfate] + O", "values": [{"measurement": "osmotic coefficient", "setting": "m1 = 1.562", "value": "0.586 ± 0.016"}, {"measurement": "osmotic coefficient", "setting": "m1 = 1.585", "value": "0.593 ± 0.016"}, {"measurement": "osmotic coefficient", "setting": "m1 = 1.607", "value": "0.595 ± 0.016"}, {"measurement": "osmotic coefficient", "setting": "m1 = 1.643", "value": "0.601 ± 0.015"}, {"measurement": "osmotic coefficient", "setting": "m1 = 1.7", "value": "0.609 ± 0.015"}, {"measurement": "osmotic coefficient", "setting": "m1 = 1.742", "value": "0.617 ± 0.015"}, {"measurement": "osmotic coefficient", "setting": "m1 = 1.803", "value": "0.625 ± 0.015"}, {"measurement": "osmotic coefficient", "setting": "m1 = 1.884", "value": "0.641 ± 0.014"}, {"measurement": "osmotic coefficient", "setting": "m1 = 2.007", "value": "0.665 ± 0.013"}, {"measurement": "osmotic coefficient", "setting": "m1 = 2.132", "value": "0.692 ± 0.012"}, {"measurement": "osmotic coefficient", "setting": "m1 = 2.243", "value": "0.714 ± 0.011"}, {"measurement": "osmotic coefficient", "setting": "m1 = 2.385", "value": "0.746 ± 0.01"}]}
